In experiment [1] the target is T1, Alpha-2C adrenergic receptor (Homo sapiens) (UniProt P18825).
T1 sequence (whole entry): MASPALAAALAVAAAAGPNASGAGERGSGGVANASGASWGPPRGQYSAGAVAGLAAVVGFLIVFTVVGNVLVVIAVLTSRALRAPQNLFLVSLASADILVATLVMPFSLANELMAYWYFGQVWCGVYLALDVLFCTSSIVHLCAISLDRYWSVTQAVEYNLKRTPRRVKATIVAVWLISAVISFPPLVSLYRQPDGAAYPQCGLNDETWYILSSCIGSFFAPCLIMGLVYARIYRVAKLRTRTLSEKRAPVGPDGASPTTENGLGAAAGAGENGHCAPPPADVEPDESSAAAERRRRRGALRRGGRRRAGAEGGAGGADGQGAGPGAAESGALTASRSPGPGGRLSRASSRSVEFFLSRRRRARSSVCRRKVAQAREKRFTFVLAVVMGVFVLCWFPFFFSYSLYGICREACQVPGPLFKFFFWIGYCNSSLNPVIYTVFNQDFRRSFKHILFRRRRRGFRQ
Nature of the experiment: Agonist activity at recombinant human alpha2c adrenergic receptor expressed in CHOK1 cells co-expressing Gqi5 assessed as induction of cytoplasmic calcium mobilization measured for 40 secs by fluorometric analysis relative to UK14304. It is filed as functional, cell-based. The note with it: CHO-K1. For orientation: A change in cytosolic calcium serves as a functional read-out for many receptors and channels.

The target in experiment [2] is T1, Alpha-2C adrenergic receptor (Homo sapiens). Description: (§1) Displacement of [3H]-UK14304 from recombinant human alpha2c adrenergic receptor expressed in CHOK1 cell membranes after 30 mins by scintillation counting analysis. Particulars: CHO-K1. On the technique in general: In a radioligand displacement assay an active substance lowers the binding of a labelled ligand.

Experiment [3] deals with T2, Alpha-2C adrenergic receptor (Homo sapiens, UniProt P18825).
T2 sequence (P18825 whole entry): T1 sequence (whole entry)
The experiment is described as §1. Also noted: species or system CHO-K1.

Experiment [4] concerns the target T2, Alpha-2C adrenergic receptor. Nature of the experiment: Agonist activity at recombinant human alpha2c adrenergic receptor expressed in CHOK1 cells co-expressing Gqi5 assessed as induction of cytoplasmic calcium mobilization measured for 40 secs by fluorometric analysis. Format: functional, cell-based, CHO-K1.
Experiment [5] deals with Somatostatin receptor type 4 (Homo sapiens) (UniProt P31391). Description: Agonist activity at recombinant human sst4 receptor expressed in CHOK1 cells co-expressing Galpha16 assessed as induction of cytoplasmic calcium mobilization at 250 uM measured for 40 secs by fluorometric analysis relative to L-803087. Particulars: CHO-K1. Format: functional, cell-based.

The Emax is the size of the effect at its maximum, as opposed to the concentration needed. Broadly, the Ki is a dissociation constant, usually derived from enzyme kinetics or from competition with a known ligand. As usually defined, the EC50 is the midpoint of the concentration-response curve.

Structures are written as SMILES. Bounds are passed on as bounds.

Sequence of Somatostatin receptor type 4 (Homo sapiens) (P31391 whole entry): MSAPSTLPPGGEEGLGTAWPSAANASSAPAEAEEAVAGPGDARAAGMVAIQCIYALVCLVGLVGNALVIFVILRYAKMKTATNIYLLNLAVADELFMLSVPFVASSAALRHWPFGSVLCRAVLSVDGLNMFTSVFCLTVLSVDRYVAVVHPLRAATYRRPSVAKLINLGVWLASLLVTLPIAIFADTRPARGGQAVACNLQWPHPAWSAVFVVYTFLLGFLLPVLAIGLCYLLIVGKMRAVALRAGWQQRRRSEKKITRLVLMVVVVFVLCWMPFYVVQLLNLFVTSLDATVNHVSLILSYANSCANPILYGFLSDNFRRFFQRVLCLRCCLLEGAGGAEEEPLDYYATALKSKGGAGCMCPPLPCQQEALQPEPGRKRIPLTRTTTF

As for `c1ccc2c(CC3=NCCN3)cccc2c1` [NAPHAZOLINE], the Emax in experiment [1] amounted to 55%; in experiment [2] it was 102%. The Ki in experiment [3] is 0.00229 µM. In addition, the 50% effective concentration (EC50) in experiment [4] was 0.055 µM.

Take `N#Cc1cccc(-c2ccccc2CCN)c1`: the results for the Emax in experiment [1] and in experiment [2] were over 75% and 100%, respectively. Moreover, the Ki in experiment [3] is 0.0117 µM. Moreover, the EC50 in experiment [4] was over 501 µM.

As for `Cc1ccccc1NCc1ccncc1`, the Emax is over 66% in experiment [1] and 92% in experiment [2]. Moreover, the Ki in experiment [3] was 0.537 µM. In experiment [4], the EC50 is over 501 µM.

For the molecule `Oc1cc2c(cc1O)C(c1ccccc1)CNCC2` (configuration not stated) [SKF-38393], the Emax in experiment [1] was 70%; in experiment [2], 92%. Further, the Ki in experiment [3] is 0.0832 µM. For the same molecule, the EC50 in experiment [4] was 1.38 µM.

Turning to `Brc1cccc(Cn2ccnc2)c1`, the Emax in experiment [1] was over 105%; in experiment [2], 97%. Moreover, the Ki in experiment [3] was 1.17 µM. In addition, the EC50 in experiment [4] was over 501 µM.

Regarding `NCC(=O)Nc1ccccc1Oc1ccccc1`, the results for the Emax in experiment [1] and in experiment [2] were 93% and 81%, respectively. In experiment [3], the inhibition constant Ki was 15.5 µM. Besides, the EC50 in experiment [4] is 631 µM.

For `COc1ccccc1OCC1CNCCO1` (configuration not stated), the figures for the Emax in experiment [1] and in experiment [2] were over 77% and 81%, respectively. The Ki in experiment [3] is 10.5 µM. Further, the EC50 in experiment [4] was over 501 µM.

With `Cc1ccccc1NCc1cnc[nH]1`, the results for the Emax in experiment [1] and in experiment [2] were 60% and 100%, respectively. Besides, the inhibition constant (Ki) in experiment [3] is 0.0724 µM. In experiment [4], the EC50 is 0.174 µM.

As for `CN1CCN(c2cccc(N)c2)CC1`, the Ki in experiment [3] is 0.562 µM.

With `O=C(CCC1CCCC1)N1CCSC12CCNCC2`, the Emax in experiment [1] is over 82%; in experiment [2], 81%. Besides, in experiment [3], the Ki was 15.5 µM. Moreover, the EC50 in experiment [4] was over 501 µM.

Take `COc1ccc(C2NCCCn3cccc32)cc1` (configuration not stated): the Ki in experiment [3] is 13.8 µM.

With `OC(Cn1ccnc1)c1ccc(Cl)cc1Cl` (configuration not stated), the maximal effect (Emax) amounted to 123% in experiment [1] and 78% in experiment [2]. Further, in experiment [3], the Ki was 15.1 µM. The EC50 in experiment [4] is 339 µM.

As for `c1cncc(-c2ccccc2NCc2ccncc2)c1`, the Emax in experiment [1] was determined as 56%; in experiment [2], 98%. Besides, the inhibition constant (Ki) in experiment [3] was 1.07 µM. Moreover, in experiment [4], the EC50 was 3.47 µM.

For the molecule `Cc1ccccc1Cn1ccnc1CNC(C)C`, the maximal effect (Emax) was 55% in experiment [1] and 102% in experiment [2]. In addition, in experiment [3], the Ki is 22.4 µM. Moreover, in experiment [4], the EC50 is 148 µM.

On to `CN1CCN(c2ccccc2N)CC1`, for which the inhibitory constant (Ki) in experiment [3] was 0.24 µM.

In the case of `c1ccc(-c2nc(CNCc3cccnc3)c[nH]2)cc1`, the Emax in experiment [1] turned out to be 87%; in experiment [2] it was 102%. In experiment [3], the Ki was 5.25 µM. Moreover, the EC50 in experiment [4] is 479 µM.

For the molecule `CCNCC(=O)N1CCn2cccc2C1c1cccc(Cl)c1` (configuration not stated), the values for the Emax in experiment [1] and in experiment [2] were over 88% and 99%, respectively. For the same molecule, the Ki in experiment [3] was 7.24 µM. The EC50 in experiment [4] was over 501 µM.

Turning to `NCCCN(C(=O)c1ccccc1)c1ccccc1`, the Emax is over 51% in experiment [1] and 104% in experiment [2]. The Ki in experiment [3] was 8.32 µM. In addition, the EC50 in experiment [4] was over 501 µM.

With `NCCSc1nc2ccccc2o1`, the Emax was determined as 49% in experiment [1] and 92% in experiment [2]. In addition, the Ki in experiment [3] was 0.646 µM. The EC50 in experiment [4] is 3.16 µM.

`CN1CCN(c2ccc(N)cc2)CC1`: in experiment [5], the Activity was under 10%. Also, the Emax in experiment [1] is over 36%; in experiment [2], 100%. Besides, the Ki in experiment [3] is 1.51 µM. In addition, in experiment [4], the EC50 was over 501 µM.
